In patent publication US8883169B2, “Immunogen platform” (Chrontech Pharma AB, priority 2007, dated 2014):

Assays:
[1] = system: antibodies to rNS3; assay: EIA of antibodies to rNS3 after immunization with rNS3 with or without ribavirin; format: in vivo, Balb/c mice
Experimental: In a first set of experiments, groups of three to five Balb/c mice (BK Universal, Uppsala, Sweden) were immunized i.p or s.c. (e.g., at the base of the tail) with 10 μg or 100 μg of recombinant hepatitis C virus non-structural 3 (rNS3) protein. […] Mice were injected with a total volume of […] per injection.
At two and four weeks following i.p. immunization, all mice were bled by retro-orbital sampling. Serum samples were collected and analyzed for the presence of antibodies to rNS3. To determine the antibody titer, an enzyme immunoassay (EIA) was performed. (See e.g., Hultgren et al., J Gen Virol. 79:2381-91 (1998) and Hultgren et al., Clin. Diagn. Lab. Immunol. 4:630-632 (1997)). The antibody levels were recorded as the highest serum dilution giving an optical density at 405 nm more than twice that of non-immunized mice.
At four, six and eight weeks the mice were bled and serum was separated and frozen. After completion of the study, sera were tested for the levels of antibodies to recombinant NS3, as described above. Mean antibody levels to rNS3 were compared between the groups using Student's t-test (parametric analysis) or Mann-Whitney (non-parametric analysis) and the software package StatView 4.5 (Abacus Concepts, Berkeley, Calif.). […] The values given represent end point titres to recombinant rNS3.
The levels of antibody to the antigen were then determined by EIA.
A second set of experiments was also performed. […] The mice were bled at week six and rNS3-specific IgG levels were determined by EIA as described previously.

[2] = system: antibodies to HBsAg; assay: EIA of antibody titer to HBsAg after Engerix vaccine with or without ribavirin; format: in vivo, mice; settings: 1 mg ribavirin, i.p., booster on week four, bled on week six
Excerpt: (Engerix, SKB). […] A booster containing the same mixture was given on week four and all mice were bled on week six.

[3] = system: NS3-specific IgG1 and IgG2a antibodies; assay: EIA of NS3-specific IgG subclasses (IgG1, IgG2a); format: in vivo, mice; settings: 10 μg rNS3 with 0.1 or 1.0 mg ribavirin i.p. at weeks 0 and 4, bled at week six
[4] = system: CD4+ T cells of lymph nodes; assay: In vitro recall assay, CD4+ T cell proliferation by [3H]thymidine incorporation; format: cell-based, mice; settings: 100 μg rNS3 mixed with 1 mg ribavirin s.c.; ten days post-immunization; 96 h of culture
Experimental: This assay can be used with any ribavirin derivative or combinations of ribavirin derivatives to determine the extent that a particular vaccine formulation modulates a cellular immune response. […] The mice were sacrificed ten days post-immunization and their lymph nodes were harvested and drained. In vitro recall assays were then performed. (See e.g., Hultgren et al., J Gen Virol. 79:2381-91 (1998) and Hultgren et al., Clin. Diagn. Lab. Immunol. 4:630-632 (1997)). The amount of CD4^+ T cell proliferation was determined at 96 h of culture by the incorporation of [^3H]thymidine.

[5] = system: NS3/4A-expressing EL-4 lymphoma cells; assay: In vivo inhibition of growth of NS3/4A-expressing EL-4 tumor cells; settings: C57BL/6 mice immunized only once
Experimental: To confirm that inhibition of tumor growth using the NS3/4A-expressing EL-4 cell line is fully dependent on an NS3/4A-specific immune response a control experiment was performed. […] Two weeks after the last immunization the mice were challenged with an s.c. injection of 10^6 native EL-4 or NS3/4A-expressing EL-4 cells (NS3/4A-EL-4). An NS3/4A-specific immune response was required for protection, since only the immunized mice were protected against growth of the NS3/4A-EL-4 cell line (FIG. 10A). Thus, this H-2^b-restricted model behaves similarly to the SP2/0 H-2^d restricted model.
As set forth herein, the NS3/4A gene can be used as a vaccine. Although it had been determined that NS3/4A quickly primed in vivo functional CTLs, the effect of therapeutic immunization after the injection of tumor cells was analyzed next. Groups of ten C57BL/6 mice were challenged with 10^6 NS3/4A-EL-4 tumor cells. […]
In vivo challenge of immunized mice with the NS3/4A-expressing SP2/0 myeloma or EL-4 lymphoma cell line was performed according to the method described by Encke et al., supra. […] The kinetics of the tumor growth was determined by measuring the tumor size through the skin at days six to 20. […]
To test the therapeutic effect of the vaccines groups of mice were inoculated with the tumor cells as described above. […] The tumor growth was monitored from day 6 to day 20.

[6] = system: NS3 and birch specific T cells; assay: ELISpot assay of γ-IFN-secreting CTLs and T helper cells (NS3 and birch specific); format: cell-based, C57/BL6 mice; settings: immunized twice, 4 weeks apart; two weeks after the second injection
Experimental: (§1) Groups of C57/BL6 mice were immunized twice with 50 μg of either plasmid containing a codon optimized NS3/4A gene, a NS3/4A-Betv1 fusion gene containing a protease cleavage site between NS3 and NS4A as well as a protease cleavage site between the NS4A and the birch antigen (SEQ ID NO: 1380), or a NS3/4A-Betv1 fusion gene containing a protease cleavage site between NS3 and NS4A, a protease cleavage site between the NS4A and the birch antigen as well as two additional protease cleavage sites within the birch antigen (SEQ ID NO: 1381) using an electroporation device. Another group of mice were immunized twice with recombinant Betv1 protein (rBetv1) in Freunds incomplete adjuvant. The two immunizations were 4 weeks apart. The mice were sacrificed two weeks after the second immunizations and the lymph nodes and spleens of each group were collected and analyzed.
The presence of γ-IFN-secreting CTLs and T helper (Th) cells to antigens in splenocyte or lymph node cultures were evaluated using a commercially available ELISpot assay. […] The ability of NS3-specific and birch-specific Th and CTLs to produce γ-IFN recalled by a concanavalin-A (con-A) as a positive control, media alone as a negative control, native HBcAg, recombinant HBcAg (rHBcAg), various concentrations of NS3/4A CTL peptide, various concentrations of rNS3, and various concentrations of rBetv1 was analyzed via the ELISpot.

[7] = system: IgE to Betv1; assay: ELISA of IgE antibodies on recombinant birch protein; format: in vivo, C57/BL6 mice; settings: immunized twice, bled two weeks after the second immunization
Experimental: as §1, with “bled” for “sacrificed”, “immunizations.” for “immunizations and the lymph nodes and spleens of each group were collected and analyzed.”
Dilutions of the sera were tested on ELISA plates coated with recombinant birch protein. A secondary antibody specific for IgE antibodies was used to detect bound antibody. […] The DNA constructs are thus not allergenic in that they prime a Th1 type response.

For `NC(=O)c1ncn([C@@H]2O[C@H](CO)[C@@H](O)[C@H]2O)n1` [ribavirin, 1-β-D-ribofuranosyl-1,2,4-triazole-3-carboxamide], the “effect on antibody levels, higher doses (1-10 mg) of ribavirin” value ([1]; 20 μg rNS3, weeks 1 and 3) was “enhance antibody levels at week three”, the “effect on antibody levels, low doses (<1 mg) of ribavirin” value ([1]; 20 μg rNS3, weeks 1 and 3) was “enhance antibody levels at week one but not at week three” and the “antibody titer compared to formulations composed of only rNS3” value ([1]; 1 mg of ribavirin and either 10 μg or 100 μg of rNS3, two weeks post-immunization) was “significantly greater antibody titer”. The “immune response compared to that elicited without ribavirin” value ([1]; approximately 1 to 3 mg doses of ribavirin) was “more than 12 times”, the “response to Engerix vaccine (HBsAg and alum)” value [2] was “enhanced the response to 2 μg of an existing vaccine” and the “effect on the IgG subclass response in the NS3-specific immune response” value [3] was “does not change the IgG subclass response”. The “T cell proliferative response compared to 100 μg rNS3 in PBS” value [4] was “much greater T cell proliferative response”.

“GAVQNEVTL (Artificial Peptide, NS3/4A H-2D Binding Peptide) [NS3-derived CTL peptide]” was tested, and the “protection against growth of NS3/4A-EL-4 tumors after a single immunization” value [5] was “not protected”.

B1: rBetv1: recombinant Betv1 protein (major Birch allergen) in Freunds incomplete adjuvant (protein, UniProt P15494 2-160, looked up)
Major pollen allergen Bet v …: GVFNYETETTSVIPAARLFKAFILDGDNLFPKVAPQAISSVENIEGNGGPGTIKKISFPEGFPFKYVKDRVDEVDHTNFKYNYSVIEGGPIGDTLEKISNEIKIVATPDGGSILKISNKYHTKGDHEVKAEQVKASKEMGETLLRAVESYLLAHSDAYN
modifications: in Freund's incomplete adjuvant
With B1 the “priming of IFN-γ producing Betv1-specific T cells” value [6] was “fails to do” and the “priming of IgE to Betv1” value [7] was “shows birch-specific IgE antibodies”.
